Measurements from patent publication US8598114B2, “Antimicrobial compounds” (priority 2007, dated 2013).
≈ marks a conversion by molar mass, not a printed value. Peptide text beside a SMILES is read from it. * marks the point of attachment. NHPhenethyl = c1ccc(CCN*)cc1

Legend:
trypsin = assay: in vitro; format: in vitro ADME; details: pH 8.6
Protocol: Measurements and Calculation of Peptide Half-Life
Each peptide was dissolved in a 0.1 M NH4HCO3 buffer (pH 6.5) to yield a final peptide concentration of 1 mg/ml. A trypsin solution was prepared by dissolving 1 mg of trypsin in 50 ml 0.1 M NH4HCO3 buffer (pH 8.2). For the stability determination, 250 μl freshly made trypsin solution and 250 μl peptide solution were incubated in 2 ml of 0.1 M NH4HCO3 buffer (pH 8.6) at 37° C. on a rocking table. Aliquots of 0.5 ml were sampled at different time intervals, diluted with 0.5 ml water:acetonitrile (60:40 v/v) containing 1% TFA and analysed by RP-HPLC as described above. Samples without trypsin addition taken at 0 h and after 20 h at 37° C. were used as negative controls. Integration of the peak area at 254 nm for samples taken during the first 5 hours of the assay was used to generate the τ1/2.

Str. pyogenes = assay: Minimal inhibitory concentration (Example 6); format: cell-based
S. aureus = assay: Minimal inhibitory concentration (Example 6); format: cell-based
E. coli = assay: Minimal inhibitory concentration (Example 6); format: cell-based
MRSA = assay: Minimal inhibitory concentration (Example 6); format: cell-based

N=C(N)NCCC[C@H](NC(=O)[C@H](Cc1ccc(-c2cccc3ccccc23)cc1)NC(=O)[C@@H](N)CCCNC(=N)N)C(=O)NCCc1ccccc1 [Compound 3]
half-life at 0.1 mg/ml (trypsin; isolated enzyme trypsin): 1200 min

N=C(N)NCCC[C@H](NC(=O)[C@H](Cc1ccc(-c2ccc(-c3ccccc3)cc2)cc1)NC(=O)[C@@H](N)CCCNC(=N)N)C(=O)NCCc1ccccc1 [Compound 5]
half-life at 0.1 mg/ml (trypsin): > 1440 min

N=C(N)NCCC[C@H](NC(=O)[C@H](Cc1c[nH]c2ccccc12)NC(=O)[C@@H](N)CCCNC(=N)N)C(=O)NCCc1ccccc1 [Compound 6, reference compound] (H-Arg-Trp-Arg-NHPhenethyl)
half-life at 0.1 mg/ml (trypsin; isolated enzyme trypsin): 420 min

CC(C)(C)c1cc(C(C)(C)C)c2[nH]c(C(C)(C)C)c(C[C@H](NC(=O)[C@@H](N)CCCNC(=N)N)C(=O)N[C@@H](CCCNC(=N)N)C(=O)NCCc3ccccc3Br)c2c1 [—(CH2)2—(2-BrPh), H-Arg-Tbt-Arg-NH(CH)2(2-Br-phenyl)]
Minimal inhibitory concentration Str. pyogenes (Str. pyogenes): 3 mg/L (≈ 3.46 µM) | Minimal inhibitory concentration S. aureus (S. aureus): 3 mg/L (≈ 3.46 µM) | Minimal inhibitory concentration E. coli (E. coli): 6 mg/L (≈ 6.92 µM) | Minimal inhibitory concentration MRSA (MRSA): 3 mg/L (≈ 3.46 µM)
